Laboratory results reported in US7030145B2, “Pyridinyl derivatives for the treatment of depression” (Bristol-Myers Squibb Company, priority 2003, dated 2006).
pKi: −log10 of the molar value.

Columns and labels:
[1] = target: T1, cloned human CRF-R1 receptors (Homo sapiens, UniProt P34998); assay: CRF-R1 receptor binding assay (inhibition of 125I-ovine-CRF binding to cell membranes); details: membranes of 293EBNA cells transfected with hCRFR1, class d = reported as percent inhibition at 10 μM, figures not given, read-out: activity (Ki class in the CRF assays)
T1 construct: the coding region was amplifies by PCR from start to stop codons; expressed in transfected cells; membranes
T1 sequence (P34998 24-415): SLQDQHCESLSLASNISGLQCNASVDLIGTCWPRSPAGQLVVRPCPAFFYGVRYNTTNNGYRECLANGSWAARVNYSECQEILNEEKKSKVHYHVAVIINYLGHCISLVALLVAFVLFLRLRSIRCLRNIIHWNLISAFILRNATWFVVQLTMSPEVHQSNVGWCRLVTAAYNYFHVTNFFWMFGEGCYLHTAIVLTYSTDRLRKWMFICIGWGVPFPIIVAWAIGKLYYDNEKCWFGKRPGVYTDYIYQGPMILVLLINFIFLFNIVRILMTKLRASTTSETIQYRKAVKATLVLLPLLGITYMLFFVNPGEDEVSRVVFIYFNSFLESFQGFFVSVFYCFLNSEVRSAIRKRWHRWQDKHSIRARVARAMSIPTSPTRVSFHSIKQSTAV
Procedure, shortened: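 Membranes from hygromycin-selected 293EBNA cells expressing human CRF-R1 were incubated for 2 h at room temperature with 150 pM 125I-ovine-CRF and test drug at 10^−10–10^−5 M final, in pH 7.0 HEPES buffer with MgCl2 and EGTA. Bound ligand was collected by filtration and gamma-counted, and Ki values were derived by iterative curve fitting.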

melting point: 148 to 150 °C
pKi [1]: ≥ 7.00
Structure (SMILES): COC(=O)c1cccc(COc2ccc(S(=O)(=O)c3ccc(C)nc3Nc3c(C)cc(C)cc3C)cc2)c1 [Example 25, 3-{4-[6-Methyl-2-(2,4,6-trimethylphenylamino)-pyridine-3-sulfonyl]-phenoxymethyl}-benzoic acid methyl ester]
